Measurements taken from BindingDB's records for doi:10.1016/j.bmcl.2007.02.059 (Johnson & Johnson Pharmaceutical Research & Development, 2007).

CN(C)c1nc2ccc1CCCn1cc(c3ccccc31)C1=C(C(=O)NC1=O)c1cn(c3ccccc13)CC2
IC50 (Inhibition of human Rsk2): 850 nM
IC50 (Inhibition of human Rsk3): 48 nM
